Data as given in US4031218A, “7-(2,3-Dihydroxypropyl-1,3-di-n-propylxanthine and a pharmaceutical composition containing same useful as a bronchial muscle relaxant” (Mallinckrodt, Inc., priority 1976, dated 1977).
≈ marks a conversion by molar mass, not a printed value.

Legend:
[1] = Kattus et al. 1951; cited from earlier work
[2] = Summary of relative molar activities (means and therapeutic efficacy); details: mean bronchodilator (therapeutic) activity divided by mean acute toxic and side effect activity
Text: ^g - Mean bronchodilator (therapeutic) activity divided by mean acute

[3] = test system: dogs; experiment: Oral minimum emetic dose in dogs; format: in vivo, dog
Method: 2. Oral Minimum Emetic Dose
The minimum dose of each compound which causes emesis after oral administration was estimated in a group of five adult mongrel dogs of either sex. Logarithmically increasing or decreasing (depending upon response) doses of each compound were administered orally via a flexible stomach tube. The compounds were dissolved in distilled water in concentrations to allow a constant volume dose of 5 ml/kg. […] Onset, frequency, and duration of emetic episodes as well as signs of CNS stimulation were also recorded.

[4] = test system: dogs; experiment: Intravenous emetic study in dogs (ED50); format: in vivo, dog; details: estimated at HBD
Method: (§1) Twelve adult mongrel dogs of either sex were employed to determine the median emetic dose (ED50) of all five experimental compounds after intravenous administration. […] Onset, frequency, and duration of emetic episodes were also recorded. The dogs were not fasted, were allowed at least 2 days rest between doses, and no animal received the same compound twice in succession. […] ED50 values were calculated according to the method of Litchfield and Wilcoxon (1949).

[5] = Intravenous emetic study in dogs (ED50); format: in vivo, dog; details: dog, in vivo, iv; read-out: ED50 (median emetic dose), I.V. Dogs
Method: as §1

[6] = test system: dogs; details: dog, in vivo, iv
Method: Intravenous Cardiovascular Evaluation in Dogs
Thirteen adult mongrel dogs of either sex ranging in weight from 16.7 to 25.0 kg were employed to compare the overall intravenous cardiovascular activity of the five experimental compounds.
Dogs were anesthetized with pentobarbital sodium, 30-35 mg/kg i.v., fitted with a cuffed endotracheal tube, and ventilated with a Harvard Animal Respiratory Pump. A femoral vein was cannulated for i.v. drug administration. The left common carotid artery was cannulated and the cannula tip advanced into the aortic arch. A median sternotomy was performed and appropriately sized electromagnetic blood flow transducers (Biotronex) were placed around the ascending aorta and left anterior descending coronary artery. These procedures allowed continuous recording or calculation of the following parameters:
a. Mean Arterial Pressure (MAP); from the aortic cannula.
b. Heart Rate (HR); electronically from pulsatile ascending aortic flow.
c. Cardiac Output (CO); mean ascending aortic flow.
d. Myocardial Contractile Force (MCF); dQ/dt, the first derivative of maximum aortic flow rate, also known as peak aortic flow acceleration.
e. Stroke Volume (SV); quotient of CO/HR.
f. Cardiac Work (CW); product of CO X MAP.
g. Total Peripheral Resistance (TPR); quotient of MAP/CO.
h. Coronary Flow (CF); mean left anterior descending (LAD) coronary flow.
i. Coronary Resistance (CR); quotient of MAP/CF.
Logarithmically increasing doses of the appropriate compound were injected at 20-minute intervals. Responses were measured at 1, 2, 5, 10, 15 and 20 minutes after each dose and the average response during that period was calculated. Theophylline (aminophylline), dyphylline (II), and Compound V were employed in both 20 and 80 mg/ml concentrations in distilled water. Compounds III and IV were used in 10 and 30 mg/ml concentrations respectively.

[7] = test system: dogs; details: dog, in vivo, iv; remark: listed apart in the source
Method: Acute Intravenous Evaluation in Dogs
Compounds were tested in two dogs each. Animals were initially hydrated with 30 ml/kg of water, orally; then anesthetized with pentobarbital sodium, 30-35 mg/kg i.v. One femoral vein was cannulated and a constant intravenous infusion of warm saline (3 ml/min.) was begun and continued throughout the experiment. The contralateral femoral vein was also cannulated for intravenous drug administration. Urine was directly collected from bilateral ureter cannulae. After a 20-minute control collection period, the first dose of the appropriate compound was injected and urine was collected at 20-minute intervals for a period of one hour. This procedure was repeated for two additional doses of the same compound. Urine volume, pH, and sodium and potassium levels were determined for each 20-minute collection period and sums were obtained for the one-hour period after each dose. Test results, reported as successive changes in each parameter, were compared accordingly.

[8] = test system: human bronchodilator; experiment: Estimated human bronchodilator dose equivalent to recommended theophylline dose; details: based on recommended theophylline dose and relative bronchodilator activities
Text: Experimental results are summarized in Table I wherein pharmacologic and toxicologic activities relative to that of theophylline are expressed on a molar basis.
^a - Dose: Based on the recommended dose for theophylline and the
relative activities in the bronchodilator experiments.

[9] = Solubility
[10] = prior art statement; cited from earlier work

For `CCn1c(=O)c2[nH]cnc2n(CC)c1=O` [1,3-diethyl, 1,3-diethyl xanthine], the “Diuretic and emetic properties in words (prior art)” value (“Diuretic and emetic properties” below) [1] is listed as “extremely potent”.

In the case of `CCCn1c(=O)c2[nH]cnc2n(CCC)c1=O` [1,3-dipropyl, 1,3-dipropyl xanthine], the “Diuretic and emetic properties” value [1] is listed as “extremely potent”.

In the case of `Cn1c(=O)c2[nH]cnc2n(C)c1=O` [Compound I, 1,3-dimethylxanthine], the “Therapeutic Efficacy” value [2] was 1.00, the “MED (minimum emetic dose), P.O. Dogs” value [3] was 128 mg/kg and the “Emetic effect, P.O. Dogs” value ([3]; estimated at HBD) was “None”. The “Emetic effect, I.V. Dogs” value [4] was “None”, the ED50 [5] was 58 mg/kg and the “CF (coronary flow) change” value [6] was “+21 %Δ”. For the same compound, the “CO (cardiac output) change” value [6] was “+7 %Δ”, the “CW (cardiac work) change” value [6] was -5 %Δ and the “Cardiovascular effects (Mean)” value [6] was 12. The “HR (heart rate) change” value [6] was “+11 ΔBPM”, the “MAP (mean arterial pressure) change” value [6] was -12 ΔmmHg and the “MCF (myocardial contractile force) change” value [6] was “+17 %Δ”. The “TPR (total peripheral resistance) change” value [6] was -12 %Δ, the “Diuretic Activity, I.V. Dogs” value [7] was “Mild” and the “Estimated Human Bronchodilator Dose (HBD), per 70 kg” value [8] was 200 mg/70 kg. For the same compound, the “Estimated Human Bronchodilator Dose (HBD), per kg” value [8] was 2.9 mg/kg, the solubility ([9]; water) was 8000 µg/mL (≈ 44.4 mM) and the Solubility in words ([9]; water solubility, qualitative) was “poor solubility”. The “Water solubility in words (prior art)” value [10] was “lack of water solubility”.

For `CCCCn1c(=O)c2[nH]cnc2n(CCCC)c1=O` [1,3-dibutyl xanthine], the “Diuretic and emetic properties” value [1] is given as “extremely potent”.
